Experiments:
STAT1 = target: T1, STAT1 (Homo sapiens, UniProt P42224); test: EMSA of STAT1 binding to the STAT3 decoy, PCI-15B nuclear extracts; conditions: supershift
T1 construct: Nuclear protein extracts of PCI-15B cells, prepared according to standard methods, were used for the EMSA; endogenous in cells; host or cells: PCI-15B cells (nuclear extract)
T1 sequence (P42224 2-750 limits assumed): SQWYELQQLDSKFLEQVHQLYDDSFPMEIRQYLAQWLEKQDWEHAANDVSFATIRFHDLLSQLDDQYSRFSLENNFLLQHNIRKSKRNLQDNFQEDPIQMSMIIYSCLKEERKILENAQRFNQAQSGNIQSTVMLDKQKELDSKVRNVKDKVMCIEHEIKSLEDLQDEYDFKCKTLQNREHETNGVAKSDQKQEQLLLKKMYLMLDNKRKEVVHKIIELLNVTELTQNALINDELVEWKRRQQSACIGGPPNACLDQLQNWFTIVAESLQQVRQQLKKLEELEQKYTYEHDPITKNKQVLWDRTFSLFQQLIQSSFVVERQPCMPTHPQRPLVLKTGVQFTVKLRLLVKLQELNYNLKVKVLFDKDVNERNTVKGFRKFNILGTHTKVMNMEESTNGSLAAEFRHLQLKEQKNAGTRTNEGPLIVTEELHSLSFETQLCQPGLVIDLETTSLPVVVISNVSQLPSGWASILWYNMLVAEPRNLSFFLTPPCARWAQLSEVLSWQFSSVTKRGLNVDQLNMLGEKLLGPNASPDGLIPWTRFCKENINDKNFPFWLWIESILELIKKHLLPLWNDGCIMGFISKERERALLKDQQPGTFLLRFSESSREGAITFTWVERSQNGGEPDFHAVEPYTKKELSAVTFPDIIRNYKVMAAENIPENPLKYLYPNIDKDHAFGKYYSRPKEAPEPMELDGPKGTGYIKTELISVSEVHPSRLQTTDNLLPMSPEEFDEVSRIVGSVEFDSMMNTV
Procedure: FIG. 10 depicts binding of STAT 1 to the STAT3 decoy in an electrophoretic mobility shift assay (EMSA). Nuclear protein extracts of PCI-15B cells, prepared according to standard methods, were used for the EMSA. The specificity of STAT1 or STAT3 binding to the STAT3 decoy was determined by supershifting with STAT1- or STAT3-specific antibodies, or both. The experiment has been repeated more than 3 times.

STAT3 = target: T2, STAT3 (Homo sapiens, UniProt P40763); test: STAT3 activation by EMSA in harvested xenografts; assay type: in vivo; conditions: xenografts harvested 4 hrs after last treatment; p=0.02
T2 construct: Whole cell extracts were prepared and EMSAs performed on 4% native polyacrylamide gels; endogenous in cells; host or cells: whole cell extracts
Procedure: Electrophoretic Mobility Shift Assay (EMSA). Whole cell extracts were prepared and EMSAs performed on 4% native polyacrylamide gels as described (Xi, S., et al. J Biol Chem, 278: 31574-31583, 2003 and Wong, P., etal. Mol Cell Biol, 14. 914-922, 1994). STAT3 activation was evaluated by using binding reactions with 20 μg of extracted protein, and radiolabeled high-affinity serum inducible element (hSIE) duplex oligonucleotide (Wagner et al., EMBO J. 9(13):4477-4484 (1990)). Quantification of the STAT3 signal was performed by scanning the SIF-A band using a Molecular Dynamics Personal Densitometer SI and IMAGEQUANT software. […] For supershift experiments, extracts were preincubated with STAT3 polyclonal antibody (C-20, Santa Cruz Biotechnology). Gel shift bands were quantified by densitometry and the Molecular Analyst software (AlphaDigidoc 1000, Alpha-Innotech) with normalization of each band to the positive control lysate run on that gel as described previously for STAT3 activation determinations (Grandis, J. R. et al. Proc Natl Acad Sci USA, 97: 4227-4232., 2000).
In vivo tumor xenograft studies. Female athymic nude mice nu/nu (4-6 weeks old; 20±2 g; Harlan-Sprague-Dawley) were implanted with 1×10^6 1483 cells into the right and left flank with a 26-gauge needle/1 ml tuberculin syringe, resulting in two tumors per mouse. […]

SCCHN cells = test: Incorporation of decoy into SCCHN cells, fluorescence labeled flow cytometry; assay type: cell-based; conditions: SCCHN cells in vitro, previously assessed
p53-responsive element = test: p53-Luciferase reporter gene assay in UM-22B SCCHN cells; assay type: cell-based; conditions: UM-22B p53-Luc, 2 μg transfected, 24 hrs
Procedure: FIG. 8 depicts the inhibition of reporter gene expression from a p53-responsive element in SCCHN cells. An SCCHN cell line, UM-22B, was used to generate a stable cell line expressing a p53-Luciferase (p53-Luc) reporter gene (The p53-Luc plasmid carrying 14 repeats of p53 transcription recognition sequence: 5'-[…] ID NO: 30)), was obtained from Stratagene, Catalog number: 219085-51). The cells were transfected with 2 μg of the STAT3 decoy or the control mutant decoy. At 24 hrs after transfection, luciferase (Luc) activity was measured and normalized to the total amount of protein according to standard methods.

T2 sequence (P40763 2-770 limits assumed): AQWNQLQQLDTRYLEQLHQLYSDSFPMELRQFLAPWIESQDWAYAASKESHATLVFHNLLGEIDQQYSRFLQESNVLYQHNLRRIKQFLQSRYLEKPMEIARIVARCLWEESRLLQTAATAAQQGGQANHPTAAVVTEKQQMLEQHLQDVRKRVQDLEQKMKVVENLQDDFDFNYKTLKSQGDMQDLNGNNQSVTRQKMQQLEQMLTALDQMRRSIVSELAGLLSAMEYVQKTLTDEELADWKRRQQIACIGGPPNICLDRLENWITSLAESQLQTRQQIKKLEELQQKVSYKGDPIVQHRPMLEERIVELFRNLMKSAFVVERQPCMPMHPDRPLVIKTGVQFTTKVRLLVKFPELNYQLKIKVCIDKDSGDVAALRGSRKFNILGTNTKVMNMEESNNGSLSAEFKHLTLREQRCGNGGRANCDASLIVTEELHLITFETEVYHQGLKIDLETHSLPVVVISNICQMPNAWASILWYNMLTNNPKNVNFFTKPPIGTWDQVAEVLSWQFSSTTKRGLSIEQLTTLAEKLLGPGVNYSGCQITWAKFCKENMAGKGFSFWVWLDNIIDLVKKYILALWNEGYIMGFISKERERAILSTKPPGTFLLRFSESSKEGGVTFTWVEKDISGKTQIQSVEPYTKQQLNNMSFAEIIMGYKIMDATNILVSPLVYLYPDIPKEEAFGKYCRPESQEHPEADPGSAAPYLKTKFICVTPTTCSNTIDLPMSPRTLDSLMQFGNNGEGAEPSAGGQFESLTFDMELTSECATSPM

Substance: STAT3 decoy (sense CATTTCCCGTAAATC; antisense GATTTACGGGAAATG; phosphorothioate modified, further chemistry not given here; listed as Homo sapiens)
- binding to STAT1 (STAT1): able to bind
- STAT3 activation levels compared with mutant control decoy (STAT3): decreased
- cells in which decoy was detected (SCCHN cells): > 90%
- p53 reporter activity (p53-responsive element): specifically interfere
